Data on 2 molecules can be found in paper PMC11695783 (Frontiers in Pharmacology, 2024).

Values after ≈ are worked out from the molar mass of the structure shown. Values joined by “and” are separate entries in the source; they are usually repeats but may differ in a detail not shown here. Equal entries are not always repeated. Where two headings read alike, the source gives them in different places.

Data set [1] relates to ICR strain mice. As to the kind of experiment: Acute toxicity study, intramuscular injection. The format is in vivo. As for the experimental part:
(§1) Ten mice were gavaged with 5,000 mg/kg of compound 16C and another 10 mice were given DMSO orally as a control. The mice were fed and watered ad libitum. The animals’ appearance, diet, behavior, and death were observed and recorded for 14 consecutive days after administration. The LD50 was calculated as previously described ([Xiao et al., 2019]), and the test was repeated twice. To assess the acute toxicity of intramuscular administration in mice, we repeated the above experiment and replaced gavage with intramuscular injection.

Another data set has as its system RAW 264.7. Also noted: method as in PMID 26150841. The following applies: RAW 264.7, 8 μg/mL, compared with the control drugs; ref [30]; cited from earlier work.
Another data set deals with CXCL1. The experiment in a line: CXCL1 in BALF of M. pneumoniae-infected mice (ELISA). The following applies: for CXCL1 in BALF (AV): group AV; for CXCL1 in BALF: individual mice. Type of data set: in vivo, BALB/c mice. How it is done:
Adult BALB/c mice (20–22 g) were divided into a control group, a positive group, and compound 16C groups at low (20 mg/kg), medium (40 mg/kg), and high-dose (80 mg/kg) levels and oral and intramuscular tiamulin treatment groups (40 mg/kg). We formulated the above dose range based on the dose at which tiamulin was approved for injection (10–20 mg/kg) and the dose previously reported (45 mg/kg) ([EMA, 1999]; [Xiao et al., 2016]). In summary, we selected similar doses for compound 16C in vivo study. 40 mg/kg was used as an intermediate value, one-half of it as a low dose, and two times of it as a high dose. To prepare the challenge solution, logarithmic phase culture suspensions were centrifuged at 1700 g for 10 min, and the pellets were suspended in sterile PBS to obtain 1 × 10^9 CFU/mL. Before the challenge, mice were anesthetized with tribromoethanol (250 mg/kg, IP). Mice in the control groups were intratracheally inoculated with sterile PBS, whereas mice in the other groups were intratracheally challenged with 50 μL (1 × 10^9 CFU/mL) M. pneumoniae suspension once a day for 3 days. Compound 16C and tiamulin (tiamulin-IM group) dissolved using the method mentioned in pharmacokinetic studies, and the tiamulin fumarate soluble powder was dissolved in ddH2O for oral administration. After the final challenge, antibiotics were administered at low, medium, and high-dose levels (see above) at 10 a.m. and 10 p.m. daily for 4 consecutive days. Normal saline containing 5% DMSO and 5% Tween-80 was administered as control and positive groups by thigh intramuscular injection. To compare the efficacy of compound 16C and tiamulin under the same route of administration, we used the original tiamulin for intramuscular administration in the same formulation. On the other hand, tiamulin fumarate soluble powder, approved for oral administration to treat animal mycoplasma diseases in China, was administered to mice by gavage. Based on a clinical study of lefamulin in community-acquired bacterial pneumonia (CABP), subjects were administered twice a day and the 96 ± 24 h of starting treatment was an essential point for early clinical response (ECR) ([Paukner et al., 2022]). We therefore stopped treatment at 96 h and sampled at 192 h to explore whether the disease worsened after cessation of treatment. Bronchoalveolar lavage fluid (BALF) and lungs were collected at 0, 96, 192 h (Samples of 0 h were collected before starting treatment, and mice were fed ad libitum without drug treatment during 96–192 h) after the first dose, BALF for cytokine and cytological analysis and lung for histopathological evaluation.
Bronchoalveolar lavage was performed according to a standardized method ([Van Hoecke et al., 2017]). BALF was obtained following infusion of 0.5 mL PBS via tracheal cannulation into the lung twice (total 1 mL), and 200 µL was used for mycoplasma counts. The remaining BALF was centrifuged at 300 g for 10 min to separate the debris. The supernatants were stored at −80°C, and the debris was resuspended in the same volume of PBS containing red blood cell lysis buffer. A hemocytometer was used to count total cell numbers in BALF, and cell smears (Diff-Quik staining) were prepared to calculate the percentages of neutrophils, macrophages, and lymphocytes. IFN-γ, TNF-α, and CXCL1 levels in BALF samples were assessed using commercial ELISA kits using guidelines recommended by the manufacturer (Elabscience, Wuhan, China). Parallel data for each experimental group at each time point were obtained from six different mice.
A general note: ELISA stands for enzyme-linked immunosorbent assay.

Data set [2] concerns ICR strain mice. As to the kind of experiment: Acute toxicity study, oral gavage. Type of data set: in vivo. As for the experimental part: Twenty four male and female SPF-grade ICR strain mice were randomly divided into 6 groups of 4 mice each. Compound 16C was dissolved in DMSO at doses of 0, 8, 40, 200, 1,000, and 5,000 mg/kg and was administered to the mice by gavage.
as §1

The subject of data set [3] is Mycoplasma pneumoniae strain M129 (ATCC 29342). As to the kind of experiment: Susceptibility assay (broth microdilution MIC, MBC). Type of data set: cell-based. The following applies: for MBC: M. pneumoniae strain M129; for MIC: M. pneumoniae strain M129, ≈96 h. How it is done:
Mycoplasma pneumoniae strain M129 (ATCC 29342) was obtained from American Type Culture Collection (Manassas, VA, United States) and cultured at 37°C in the presence of 5% CO2 in the modified SP-4 liquid medium (pH 7.4) containing 2.1% (w/v) CM1166 mycoplasma broth base medium (Oxoid, Hants, United Kingdom), 20% (v/v) fetal bovine serum (FBS, Bioexplorer, CO, United States), 0.4% yeast extract (Oxoid), 0.55% (w/v) CMRL 1066 w/L-glutamine culture media powder (MyBioSource, San Diego, CA, United States), 1% D-glucose (Macklin) and 0.004% phenol red (Macklin). […] The solid medium is based on the above formula with the addition of 1% agar, and the characteristic fried egg-like colonies were used for experiments following incubation for 7 d on plates.
The broth microdilution MIC procedure was performed according to standardized methods for microdilution susceptibility testing of mycoplasma species ([Waites et al., 2012]). […] The concentration of organisms should be determined to approximately 10^6 CFU/mL prior to inoculation into 96-well plates. Due to the action of phenol red, the acidic metabolites of microbial growth can turn the medium yellow. […] The MBC assays were performed based on MICs following endpoint reading and the liquid in the high-concentration wells was removed for bacterial counting.

Data set [4] deals with mice. The arrangement: method as in EMA, 1999. The following applies: administered intravenously, ref EMA, 1999; cited from earlier work.
In data set [5] the test system is mice. The following applies: acute oral toxicity, ref EMA, 1999, cited from earlier work.
The mark [6] stands for this setting: compound 16C 20 mg/kg IM, 192 h.
Where [7] appears, read: compound 16C 40 mg/kg IM, 192 h.
[8] abbreviates: compound 16C 80 mg/kg IM, 192 h.
Setting [9] is: tiamulin 40 mg/kg IM, 96 h, listed as Tiamulin-IM.

As usually defined, the LD50 is the dose at which mortality reaches 50%. For orientation: MBC means the lowest tested concentration that kills the bacteria rather than only halting them. One may read the MIC as the smallest concentration in the dilution series that meets the test's criterion for growth inhibition. Take `C=CC1(C)CC(OC(=O)CSc2ccc(NC(=O)Cc3ccc([N+](=O)[O-])cc3)cc2)C2(C)C(C)CCC3(CCC(=O)C32)C(C)C1O` (centres unmarked) [compound 16C, 22–((4-((4-nitrophenyl)acetamido)phenyl)thio)deoxypleuromutilin]: the mouse deaths entry in the data set on ICR strain mice [1] (single dose of 5,000 mg/kg, after 2 weeks) was “did not result in any mouse deaths”; in the data set on ICR strain mice [2] (oral gavage, single dose of 5,000 mg/kg, after 2 weeks) it was “did not result in any mouse deaths”. Also, the LD50 with ICR strain mice [1] (single dose, mice, observed 14 d) was > 5,000 mg/kg; with ICR strain mice [2] (oral gavage, single dose, mice, observed 14 d) it was > 5,000 mg/kg. In addition, the “influence on cell viability” value with RAW 264.7 is listed as “only slight influences on the viability”. Besides, the “CXCL1 in BALF (AV)” value in the data set on CXCL1 (compound 16C 20 mg/kg IM, 96 h) turned out to be 48.0123 pg/mL; in the data set on CXCL1 (setting [6]) it was 38.192 pg/mL; in the data set with CXCL1 (compound 16C 40 mg/kg IM, 96 h) it was 22.7681 pg/mL; in the data set on CXCL1 (setting [7]), 28.9333 pg/mL; in the data set with CXCL1 (compound 16C 80 mg/kg IM, 96 h), 24.5788 pg/mL; with CXCL1 (setting [8]), 39.611 pg/mL. The “CXCL1 in BALF” value in the data set on CXCL1 (compound 16C 20 mg/kg IM, 96 h) was 56.3478 pg/mL and 48.458 pg/mL and 47.2524 pg/mL and 45.2286 pg/mL and 42.7748 pg/mL; in the data set on CXCL1 (setting [6]), 48.0568 pg/mL and 31.7563 pg/mL and 40.2912 pg/mL and 33.499 pg/mL and 37.352 pg/mL and 38.1966 pg/mL; in the data set with CXCL1 (compound 16C 40 mg/kg IM, 96 h) it was 15.9622 pg/mL and 24.4156 pg/mL and 34.1197 pg/mL and 28.066 pg/mL and 17.0225 pg/mL; in the data set with CXCL1 (setting [7]), 23.476 pg/mL and 20.5799 pg/mL and 29.3957 pg/mL and 43.4026 pg/mL and 16.4951 pg/mL and 40.2505 pg/mL; in the data set on CXCL1 (compound 16C 80 mg/kg IM, 96 h), 33.6631 pg/mL and 23.7534 pg/mL and 35.719 pg/mL and 18.1872 pg/mL and 17.5299 pg/mL and 18.6204 pg/mL; in the data set with CXCL1 (setting [8]) it was 45.7844 pg/mL and 28.8637 pg/mL and 42.9442 pg/mL and 41.3398 pg/mL and 45.9405 pg/mL and 32.7936 pg/mL. Moreover, the “deaths (pre-test)” value in the data set on ICR strain mice [2] (gavage 8, 40, 200, 1,000, and 5,000 mg/kg in DMSO, observed 14 d) was “no deaths were observed”. Moreover, the symptoms observed result in the data set with ICR strain mice [2] (single dose of 5,000 mg/kg, oral gavage or intramuscular injection, mice rapidly recovered) was “anorexic symptoms”. In data set [3], this molecule registered an MBC of 0.007812 µg/mL (≈ 0.012 µM). In data set [3], this molecule came in with an MIC of 1.953 ng/mL (≈ 0.00301 µM).

Regarding `C=C[C@]1(C)C[C@@H](OC(=O)CSCCN(CC)CC)[C@]2(C)[C@H](C)CC[C@]3(CCC(=O)[C@H]32)[C@@H](C)[C@@H]1O` [tiamulin, Tiamulin, reference compound], the “CXCL1 in BALF (AV)” value was found to be 35.2692 pg/mL in the data set with CXCL1 (setting [9]); 47.4109 pg/mL in the data set on CXCL1 (tiamulin 40 mg/kg IM, 192 h); 40.932 pg/mL in the data set with CXCL1 (tiamulin 40 mg/kg PO (fumarate soluble powder), 96 h); 46.955 pg/mL in the data set with CXCL1 (tiamulin 40 mg/kg PO (fumarate soluble powder), 192 h). The “CXCL1 in BALF” value in the data set on CXCL1 (setting [9]) was 32.338 pg/mL and 47.9047 pg/mL and 25.7589 pg/mL and 33.1238 pg/mL and 37.221 pg/mL; in the data set with CXCL1 (tiamulin 40 mg/kg IM, 192 h, listed as Tiamulin-IM) it was 47.2576 pg/mL and 36.3942 pg/mL and 46.6093 pg/mL and 59.3827 pg/mL. In data set [3] (read-out: MIC), the MIC was determined as 7.81 ng/mL (≈ 0.0158 µM). The MBC in data set [3] (read-out: MBC) was 0.0625 µg/mL (≈ 0.127 µM). In addition, the LD50 in the data set on mice [4] is given as 50 mg/kg; in the data set on mice [5] (female mice), 650 mg/kg; in the data set with mice [5] (male mice), 770 mg/kg.
